Experimental data published in patent US9273067B2, “Pyrazolopyrimidine macrocycles as inhibitors of human immunodeficiency virus replication” (BRISTOL-MYERS SQUIBB COMPANY, priority 2014, dated 2016).

Tested on: NL-RLuc virus (recombinant HIV NL4-3 with Renilla Luciferase) in MT-2 cells
Test: Inhibition of HIV replication (NL-RLuc virus in MT-2 cells, luciferase readout)
Type: cell-based, human immunodeficiency virus (HIV)
Description: Inhibition of HIV Replication:
A recombinant NL-RLuc proviral clone was constructed in which a section of the nef gene from NL4-3 was replaced with the Renilla Luciferase gene. This virus is fully infectious and can undergo multiple cycles of replication in cell culture. In addition, the luciferous reporter provides a simple and easy method for quantitating the extent of virus growth and consequently, the antiviral activity of test compounds. The plasmid pNLRLuc contains the proviral NL-Rluc DNA cloned into pUC 18 at the PvuII site. The NL-RLuc virus was prepared by transfection of 293T cells with the plasmid pNLRLuc. Transfections were performed using the LipofectAMINE PLUS kit from Invitrogen (Carlsbad, Calif.) according to the manufacturer and the virus generated was titered in MT-2 cells. For susceptibility analyses, the titrated virus was used to infect MT-2 cells in the presence of compound, and after 5 days of incubation, cells were processed and quantitated for virus growth by the amount of expressed luciferase. Assay media was RPMI 1640 supplemented with 10% heat inactivated fetal bovine serum (FBS), 100 units/ml penicillin G/100 units/ml streptomycin, 10 mM HEPES buffer pH 7.55 and 2 mM L-glutamine. The results from at least 2 experiments were used to calculate the EC50 values. Luciferase was quantitated using the Dual Luciferase kit from Promega (Madison, Wis.). Susceptibility of viruses to compounds was determined by incubation in the presence of serial dilutions of the compound. The 50% effective concentration (EC50) was calculated by using the exponential form of the median effect equation where (Fa)=1/[1+(ED50/drug conc.)^m] (Johnson V A, Byington R T. Infectivity Assay. In Techniques in HIV Research. ed. Aldovini A, Walker B D. 71-76. New York: Stockton Press. 1990).

[1] = MT2, 120 h, NL-RLuc virus infecting MT-2 cells, 5 days of incubation, 10% FBS, luciferase quantitation, at least 2 experiments

| Structure (SMILES) | EC50 ({}) [nM] | EC50 [1] [nM] |
| --- | --- | --- |
| CCCC1CCCCOC2(C)CCN(CC2)c2c([C@H](OC(C)(C)C)C(=O)O)c(C)nc3cc(nn23)COCc2ccc(C)cc2O1 (stereo partly drawn) [Example 45, (2S)-2-(tert-butoxy)-2-{4,16,26-trimethyl-20-propyl-11,19,25-trioxa-1,5,7,8-tetraazapentacyclo[24.2.2.1^6,^9.0^2,^7.0^13,^18]hentriaconta-2,4,6(31),8,13(18),14,16-heptane-3-yl}acetic acid] | 35 |  |
| Cc1ccc(C2CCCCOC3(C)CCN(CC3)c3c([C@H](OC(C)(C)C)C(=O)O)c(C)nc4cc(nn34)CO2)cc1 (stereo partly drawn) [Example 46, (2S)-2-(tert-butoxy)-2-[4,18-dimethyl-12-(4-methylphenyl)-11,17-dioxa-1,5,7,8-tetraazatetracyclo[16.2.2.1^6,^9.0^2,^7]tricosa-2,4,6(23),8-tetraen-3-yl]acetic acid] | 735 |  |
| Cc1ccc(C2CCCCOC3(C)CCN(CC3)c3c([C@H](OC(C)(C)C)C(=O)O)c(C)nc4cc(nn34)CO2)cc1 (stereo partly drawn) [Example 47, (2S)-2-(tert-butoxy)-2-[4,18-dimethyl-12-(4-methylphenyl)-11,17-dioxa-1,5,7,8-tetraazatetracyclo[16.2.2.1^6,^9.0^2,^7]tricosa-2,4,6(23),8-tetraen-3-yl]acetic acid] | 1590 |  |
| Cc1nc2cc3nn2c(c1[C@H](OC(C)(C)C)C(=O)O)N1CCC(C)(CC1)OCCCC[C@@H](COCc1ccccc1)OC3 [Example 48, (2S)-2-[(12S)-12-[(benzyloxy)methyl]-4,18-dimethyl-11,17-dioxa-1,5,7,8-tetraazatetracyclo[16.2.2.1^6,^9.0^2,^7]tricosa-2,4,6(23),8-tetraen-3-yl]-2-(tert-butoxy)acetic acid] |  | 111 |
| CCCC1CCCCOC2(C)CCN(CC2)c2c([C@H](OC(C)(C)C)C(=O)O)c(C)nc3cc(nn23)COCc2cc(F)ccc2O1 (stereo partly drawn) [Example 49, (2S)-2-(tert-butoxy)-2-{15-fluoro-4,26-dimethyl-20-propyl-11,19,25-trioxa-1,5,7,8-tetraazapentacyclo[24.2.2.1^6,^9.0^2,^7.0^13,^18]hentriaconta-2,4,6(31),8,13(18),14,16-heptaen-3-yl}acetic acid] | 5 |  |
| CCCC1CCCCOC2(C)CCN(CC2)c2c([C@H](OC(C)(C)C)C(=O)O)c(C)nc3cc(nn23)COCc2cc(F)ccc2O1 (stereo partly drawn) [Example 50, (2S)-2-(tert-butoxy)-2-{15-fluoro-4,26-dimethyl-20-propyl-11,19,25-trioxa-1,5,7,8-tetraazapentacyclo[24.2.2.1^6,^9.0^2,^7.0^13,^18]hentriaconta-2,4,6(31),8,13(18),14,16-heptaen-3-yl}acetic acid] | 19 |  |
| Cc1nc2cc3nn2c(c1[C@H](OC(C)(C)C)C(=O)O)N1CCC(C)(CC1)OCCCCC(c1ccccc1)Oc1ccc(F)cc1COC3 (stereo partly drawn) [Example 51, (2S)-2-(tert-butoxy)-2-{15-fluoro-4,26-dimethyl-20-phenyl-11,19,25-trioxa-1,5,7,8-tetraazapentacyclo[24.2.2.1^6,^9.0^2,^7.0^13,^18]hentriaconta-2,4,6(31),8,13(18),14,16-heptaen-3-yl}acetic acid] | 18 |  |
| Cc1nc2cc3nn2c(c1[C@H](OC(C)(C)C)C(=O)O)N1CCC(C)(CC1)OCCCCC(c1ccccc1)Oc1ccc(F)cc1COC3 (stereo partly drawn) [Example 52, (2S)-2-(tert-butoxy)-2-{15-fluoro-4,26-dimethyl-20-phenyl-11,19,25-trioxa-1,5,7,8-tetraazapentacyclo[24.2.2.1^6,^9.0^2,^7.0^13,^18]hentriaconta-2,4,6(31),8,13(18),14,16-heptaen-3-yl}acetic acid] | 60 |  |
| Cc1nc2cc3nn2c(c1[C@H](OC(C)(C)C)C(=O)O)N1CCC(C)(CC1)OCCCC[C@H](C)Oc1cc2ccccc2cc1COC3 [Example 53, (2S)-2-(tert-butoxy)-2-[(24S)-4,24,30-trimethyl-11,23,29-trioxa-1,5,7,8-tetraazahexacyclo[28.2.2.1^6,^9.0^2,^7.0^13,^22.0^15,^20]pentatriaconta-2,4,6(35),8,13,15,17,19,21-nonaen-3-yl]acetic acid] |  | 2 |
| Cc1nc2cc3nn2c(c1[C@H](OC(C)(C)C)C(=O)O)N1CCC(C)(CC1)OCCCCC(C(F)(F)F)Oc1cc(F)ccc1COC3 (stereo partly drawn) [Example 54, (2S)-2-(tert-butoxy)-2-[16-fluoro-4,26-dimethyl-20-(trifluoromethyl)-11,19,25-trioxa-1,5,7,8-tetraazapentacyclo[24.2.2.1^6,^9.0^2,^7.0^13,^18]hentriaconta-2,4,6(31),8,13,15,17-heptaen-3-yl]acetic acid] |  | 7 |
| Cc1nc2cc3nn2c(c1[C@H](OC(C)(C)C)C(=O)O)N1CCC(C)(CC1)OCCCCCc1ccccc1COC3 [Example 57, (2S)-2-(tert-Butoxy)-2-{4,25-dimethyl-11,24-dioxa-1,5,7,8-tetraazapentacyclo[23.2.2.1^6,^9.0^2,^7.0^13,^18]triaconta-2,4,6(30),8,13(18),14,16-heptaen-3-yl}acetic acid] |  | 34 |
| Cc1nc2cc3nn2c(c1[C@H](OC(C)(C)C)C(=O)O)N1CCC(C)(CC1)OCCCCCCc1ccccc1COC3 [Example 58, (2S)-2-(tert-Butoxy)-2-{4,26-dimethyl-11,25-dioxa-1,5,7,8-tetraazapentacyclo[24.2.2.1^6,^9.0^2,^7.0^13,^18]hentriaconta-2,4,6(31),8,13(18),14,16-heptaen-3-yl}acetic acid] |  | 62 |
| Cc1nc2cc3nn2c(c1[C@H](OC(C)(C)C)C(=O)O)N1CCC(C)(CC1)OCCCCCc1cccc(c1)COC3 [Example 59, (2S)-2-(tert-Butoxy)-2-{4,24-dimethyl-11,23-dioxa-1,5,7,8-tetraazapentacyclo[22.2.2.1^6,^9.1^13,^17.0^2,^7]triaconta-2,4,6(30),8,13(29),14,16-heptaen-3-yl}acetic acid] |  | 16 |
| Cc1nc2cc3nn2c(c1[C@H](OC(C)(C)C)C(=O)O)N1CCC(C)(CC1)OCCCCCc1cc(F)ccc1COC3 [Example 60, (2S)-2-(tert-Butoxy)-2-{16-fluoro-4,25-dimethyl-1,24-dioxa-1,5,7,8-tetraazapentacyclo[23.2.2.1^6,^9.0^2,^7.0^13,^18]triaconta-2,4,6(30),8,13(18),14,16-heptaen-3-yl}acetic acid] |  | 13 |
| Cc1nc2cc3nn2c(c1[C@H](OC(C)(C)C)C(=O)O)N1CCC(C)(CC1)OCCCC[C@H](C)Oc1c(ccc2ccccc12)COC3 [Example 61, (2S)-2-(tert-butoxy)-2-[(24S)-4,24,30-trimethyl-11,23,29-trioxa-1,5,7,8-tetraazahexacyclo[28.2.2.1^6,^9.0^2,^7.0^13,^22.0^16,^21]pentatriaconta-2,4,6(35),8,13(22),14,16(21),17,19-nonaen-3-yl]acetic acid] |  | 5 |
| Cc1nc2cc3nn2c(c1[C@H](OC(C)(C)C)C(=O)O)N1CCC(C)(CC1)OCCCCCc1cc(F)ccc1CN(C1CC1)C3 [Example 62, (2S)-2-(tert-Butoxy)-2-{11-cyclopropyl-16-fluoro-4,25-dimethyl-24-oxa-1,5,7,8,11-pentaazapentacyclo[23.2.2.1^6,^9.0^2,^7.0^13,^18]triaconta-2,4,6(30),8,13(18),14,16-heptaen-3-yl}acetic acid] |  | 41 |
| Cc1nc2cc3nn2c(c1[C@H](OC(C)(C)C)C(=O)O)N1CCC(C)(CC1)OCCCCc1cccc(c1)COC3 [Example 63, (2S)-2-(tert-Butoxy)-2-{4,23-dimethyl-11,22-dioxa-1,5,7,8-tetraazapentacyclo[21.2.2.1^6,^9.1^13,^17.0^2,^7]nonacosa-2,4,6(29),8,13(28),14,16-heptaen-3-yl}acetic acid] |  | 16 |
| Cc1ccc2c(c1)O[C@@H](C)CCCCOC1(C)CCN(CC1)c1c([C@H](OC(C)(C)C)C(=O)O)c(C)nc3cc(nn13)CN(C1CC1)C2 [Example 64, (2S)-2-(tert-Butoxy)-2-[(20S)-11-cyclopropyl-4,16,20,26-tetramethyl-19,25-dioxa-1,5,7,8,11-pentaazapentacyclo[24.2.2.1^6,^9.0^2,^7.0^13,^18]hentriaconta-2,4,6(31),8,13(18),14,16-heptaen-3-yl]acetic acid] |  | 12 |
| Cc1ccc2c(c1)CCCCOC1(C)CCN(CC1)c1c([C@H](OC(C)(C)C)C(=O)O)c(C)nc3cc(nn13)COC2 [Example 65, (2S)-2-(tert-Butoxy)-2-{4,16,24-trimethyl-11,23-dioxa-1,5,7,8-tetraazapentacyclo[22.2.2.1^6,^9.0^2,^7.0^13,^18]nonacosa-2,4,6(29),8,13(18),14,16-heptaen-3-yl}acetic acid] |  | 2 |
| Cc1nc2cc3nn2c(c1[C@H](OC(C)(C)C)C(=O)O)N1CCC(C)(CC1)OCCCCc1cc(F)ccc1COC3 [Example 66, (2S)-2-(tert-Butoxy)-2-{16-fluoro-4,24-dimethyl-11,23-dioxa-1,5,7,8-tetraazapentacyclo[22.2.2.1^6,^9.0^2,^7.0^13,^18]nonacosa-2,4,6(29),8,13(18),14,16-heptaen-3-yl}acetic acid] |  | 4 |
